Test results published in patent US20160289594A1, “USE OF CNGA2 AGONISTS FOR ENHANCING THE OLFACTORY EFFECT OF AN ODORANT” (Henkel AG & Co. KGaA, priority 2013, published 2016).

System: CNGA2 ion channel
Test: Experiments with skatole on direct activation of the CNGA2 ion channel
Format: cell-based, human
Settings: CNGA2 ion channel of all odor receptor cells, in addition to specific odor receptors

Cc1c[nH]c2ccccc12 [skatole, 3-methylindole]
Activation of the CNGA2 ion channel: directly activates
